Counter-ions that a name gives are not always drawn.
Key:
exploratory activity = assay: Inhibitory effect on exploratory activity; format: in vivo, male mice (Std-ddy strain); details: Mus musculus; oral, 2 h before test; 3 min counting; Probit; read-out: ID50 (inhibition of exploratory activity)
Description: A group of 5 male mice (Std-ddy strain, 20-25 g) was used. Two hours after oral administration of the test compounds in the form of 0.5% tragacanth solution or suspension, mice were placed individually in a test box (23×35×30 cm) on Animex activity meter (Farad Co.). Immediately thereafter, activity counting was started and lasted for three minutes. The mean counts of the compound-treated group were compared with those of the corresponding control (non-dosed) group, and the percent inhibition was calculated and the 50% inhibitory dose (ID50) was obtained according to the method of Probit.

[1] = test system: apomorphine-induced vomiting; assay: Inhibitory effect on apomorphine-induced vomiting; format: in vivo, dogs (Beagle); details: Canis lupus familiaris, po, 1 h, 2 h before s.c. apomorphine hydrochloride 0.3 mg/kg, emetic episodes 1 h; for inhibition in vivo at 1 mg/kg: 1.0 mg/kg oral; for inhibition in vivo at 0.1 mg/kg: 0.1 mg/kg oral
Description: A group of 3-4 dogs (Beagle, 8-15 kg) was used for examining inhibitory effects of the test compounds on apomorphine-induced vomiting according to the method of Chen and Ensor [cf. J. Pharmacol. Exp. Ther., 98, 245-250 (1950)]. Test compounds, dissolved or suspended in a 0.5% tragacanth solution were orally administered two hours before the subcutaneous administration of apomorphine hydrochloride (0.3 mg/kg). Then, the emetic episodes were counted for one hour. The emetic episodes of the compound-treated group were compared with those of the corresponding control (non-dosed) group, and the percent inhibition was calculated.

in vivo = details: mouse, oral, mice, 7 days observation
[2] = test system: gastrointestinal motility; assay: Effect on gastrointestinal motility in conscious dog; format: in vivo, beagle dogs; details: 3 and 10 mg/kg intragastric; fed state, conscious dogs
Description: Four healthy beagle dogs per group of both sexes weighing 10 to 12 kg were anesthetized with an i.v. injection of pentobarbital sodium (Nembutal, 30 mg/kg b. wt.), and the abdominal cavity was opened under aseptic conditions. Extraluminal force transducers were sutured onto the seromuscular layer of the gastric antrum, 3 cm proximal to the pyloric ring, the duodenum, the jejunum, the […] terminal ileum in a manner to measure circular muscle contraction, following the method of Ito et al., [cf. Gastrointerol. Japan. 12, 275-283 (1977).] For intragastric (i.g.) administration of drugs, a Silastic tube (Fr. size 6.5) was inserted into the lumen of the gastric body, and the tube was fixed onto the adjacent serosa. The lead wires of these transducers and gastric tube were taken out of abdominal cavity and then brought out through a skin incision made between the scapulae. The outer ends of the lead wires were sutured onto the skin adjacent to the skin incision. After the operation, jacket protector was placed on the dog to protect the lead wires and the Silastic tube. The dogs were housed in individual experimental cages and given dog food at 10 a.m., and water was given freely. Test compounds at 3 and 10 mg/kg were suspended in 0.5% tragacanth solution and given i.g. through the indwelling Silastic tube.

[3] = test system: gastric emptying delayed by cholecystokinin; assay: Effect on gastric emptying delayed by cholecystokinin; format: in vivo, Male Wistar rats; design: key to Effect on gastric emptying delayed by cholecystokinin: +: slightly to moderately improved; ++: markedly improved; ±: no improvement; details: for Effect on gastric emptying delayed by cholecystokinin: cholecystokinin 3 μg/kg s.c.; for Gastric emptying delayed by cholecystokinin (in words): compound 2: 30 or 100 mg/kg, 7b and Compound A: 10, 30 or 100 mg/kg
Description: (§1) The test was carried out according to the method of Scarpignato et al. [c f. Arch. int. Pharmacodyn., 246, 286-294 (1980)]. Male Wistar rats, weighing 130-150 g, were fasted for 18 hours before experimentation, and 1.5 ml of a test meal (phenol red 0.05% in a 1.5% aqueous methylcellulose solution) was orally given. Fifteen minutes after administration of the meal the stomach was removed and the amount of phenol red remaining in the stomach was measured. The test compounds, 10, 30 or 100 mg/kg, each dissolved or suspended in a 0.5% tragacanth solution, were orally administrated 60 minutes before administration of the test meal. Gastric emptying was delayed by subcutaneous administration of cholesystokinin 3 μg/kg or morphine 3 mg/kg 5 minutes before the administration of phenol red. The number of animals used was 5 to 10.

gastric emptying = assay: Gastric emptying enhancing activity; format: in vivo, Male Wistar rats; details: 60 min before test meal, increase from control
Description: The test was carried out according to the method of Scarpignato et al. [cf. Arch. Int. Pharmacodyn., 246, 286-294 (1980)]. Male Wistar rats, weighing 130-150 g, were fasted for 18 hours before experimentation, and 1.5 ml of a test meal (phenol red 0.05% in a 1.5% aqueous methylcellulose solution) was orally given. Fifteen minutes after administration of the meal the stomach was removed and the amount of phenol red remaining in the stomach was measured. The test compounds, dissolved or suspended in a 0.5% tragacanth solution, were orally administered 60 minutes before administration of the test meal. The rate of gastric emptying was calculated according to the amount of phenol red remaining in the stomach, and the activity of the test compounds was expressed in terms of increase in the emptying rate from the control.

[4] = test system: gastrointestinal motility; assay: Gastrointestinal motility improving activity (overall statement); details: in vivo
[5] = test system: gastric emptying delayed by morphine; assay: Effect on gastric emptying delayed by morphine; format: in vivo, Male Wistar rats; design: key to Effect on gastric emptying delayed by morphine: +: slightly to moderately improved; ++: markedly improved; ±: no improvement; details: for Effect on gastric emptying delayed by morphine: morphine 3 mg/kg s.c.
Description: as §1

SMILES | ED50 (exploratory activity) | inhibition in vivo at 1 mg/kg [1] | Increase in gastric emptying rate (gastric emptying; 3 mg/kg oral) | also measured
CCN1CCCCC(NC(=O)c2cc3nnn(C)c3cc2OC)C1 (stereo not shown) [Compound 1, N-(1-ethyl-1H-hexahydroazepin-3-yl)-6-methoxy-1-methyl-1H-benzotriazole-5-carboxamide] | > 100 mg/kg | 77% | – | –
CCN1CCCC[C@@H](NC(=O)c2cc3nnn(C)c3cc2OC)C1 [Compound 2, (R)-N-(1-ethyl-1H-hexahydroazepin-3-yl)-6-methoxy-1-methyl-1H-benzotriazole-5-carboxamide] | > 100 mg/kg | 100% | 41% | LD50 at 168 h (in vivo): 688 mg/kg; Interdigestive migrating like-contractions [2]: caused interdigestive migrating like-contractions in fed state in conscious dogs; inhibition in vivo at 0.1 mg/kg [1]: 80%; Effect on gastric emptying delayed by cholecystokinin ([3]; 30 mg/kg oral): +; Effect on gastric emptying delayed by cholecystokinin ([3]; 100 mg/kg oral): ++; Gastric emptying delayed by cholecystokinin (in words) [3]: significantly improved gastric emptying delayed by cholecystokinin; Gastrointestinal motility improving activity (in words) [4]: especially excellent gastrointestinal motility improving activity
CCN1CCCC[C@H](NC(=O)c2cc3nnn(C)c3cc2OC)C1 [Compound 3, (S)-N-(1-ethyl-1H-hexahydroazepin-3-yl)-6-methoxy-1-methyl-1H-benzotriazole-5-carboxamide] | – | 36% | – | –
CCN1CCCCC(NC(=O)c2cc3nnn(CC)c3cc2OC)C1 (stereo not shown) [Compound 4, 1-ethyl-N-(1-ethyl-1H-hexahydroazepin-3-yl)-6-methoxy-1H-benzotriazole-5-carboxamide] | > 100 mg/kg | 89% | 31% | –
CCN1CCCC[C@@H](NC(=O)c2cc3nnn(CC)c3cc2OC)C1 [Compound 5, (R)-1-ethyl-N-(1-ethyl-1H-hexahydroazepin-3-yl)-6-methoxy-1H-benzotriazole-5-carboxamide] | – | 100% | 35% | –
CCN1CCCCC(NC(=O)c2cc3nn[nH]c3cc2OC)C1 (stereo not shown) [Compound 6, N-(1-ethyl-1H-hexahydroazepin-3-yl)-6-methoxy-1H-benzotriazole-5-carboxamide] | > 100 mg/kg | 100% | 28% | inhibition in vivo at 0.3 mg/kg ([1]; 0.3 mg/kg oral): 71%
CCN1CCCC[C@@H](NC(=O)c2cc3nn[nH]c3cc2OC)C1 [Compound 7a, (R)-N-(1-ethyl-1H-hexahydroazepin-3-yl)-6-methoxy-1H-benzotriazole-5-carboxamide] | > 100 mg/kg | 100% | – | inhibition in vivo at 0.1 mg/kg [1]: 73%; Gastrointestinal motility improving activity (in words) [4]: especially excellent gastrointestinal motility improving activity
CCN1CCCC[C@H](NC(=O)c2cc3nn[nH]c3cc2OC)C1 [Compound 8b, (S)-N-(1-ethyl-1H-hexahydroazepin-3-yl)-6-methoxy-1H-benzotriazole-5-carboxamide.3/2 fumarate] | – | 19% | – | –
CCN1CCCCCC(NC(=O)c2cc3nn[nH]c3cc2OC)C1 (stereo not shown) [Compound 9, N-(1-ethyl-1H-heptahydroazocin-3-yl)-6-methoxy-1H-benzotriazole-5-carboxamide] | – | 100% | – | –
CCN1CCCCCCC(NC(=O)c2cc3nn[nH]c3cc2OC)C1 (stereo not shown) [Compound 10, N-(1-ethyl-1H-octahydroazonin-3-yl)-6-methoxy-1H-benzotriazole-5-carboxamide] | – | 100% | 46% | –
COc1cc2[nH]nnc2cc1C(=O)NC1CCCCN(CC2CC2)C1 (stereo not shown) [Compound 11, N-(1-cyclopropylmethyl-1H-hexahydroazepin-3-yl)-6-methoxy-1H-benzotriazole-5-carboxamide] | – | 92% | 34% | –
COc1cc2[nH]nnc2cc1C(=O)N[C@@H]1CCCCN(CC2CC2)C1 [Compound 12, (R)-N-(1-cyclopropylmethyl-1H-hexahydroazepin-3-yl)-6-methoxy-1H-benzotriazole-5-carboxamide] | – | 92% | – | –
COc1cc2c(cc1C(=O)N[C@@H]1CCCCN(CC3CC3)C1)nnn2C [Compound 13, (R)-N-(1-cyclopropylmethyl-1H-hexahydroazepin-3-yl)-6-methoxy-1-methyl-1H-benzotriazole-5-carboxamide] | – | 73% | – | –
CCN1CCCCCC(NC(=O)c2cc3nnn(C)c3cc2OC)C1 (stereo not shown) [Compound 14, N-(1-ethyl-1H-heptahydroazocin-3-yl)-6-methoxy-1-methyl-1H-benzotriazole-5-carboxamide] | – | 100% | 32% | –
CCN1CCCCCCC(NC(=O)c2cc3nnn(C)c3cc2OC)C1 (stereo not shown) [Compound 15, N-(1-ethyl-1H-octahydroazonin-3-yl)-6-methoxy-1-methyl-1H-benzotriazole-5-carboxamide] | – | 71% | – | –
CCN(CC)CCNC(=O)c1cc(Cl)c(N)cc1OC.Cl.O [Compound A, 4-Amino-5-chloro-N-[2-(diethylamino)ethyl]-2-methoxybenzamide hydrochloride monohydrate, reference compound] | 22.4 mg/kg | 86% | – | Interdigestive migrating like-contractions [2]: did not cause interdigestive migrating contractions at all; inhibition in vivo at 0.5 mg/kg ([1]; 0.5 mg/kg oral): 56%; Effect on gastric emptying delayed by morphine ([5]; 10 mg/kg oral): ±; Effect on gastric emptying delayed by morphine ([5]; 30 mg/kg oral): ±; Effect on gastric emptying delayed by morphine ([5]; 100 mg/kg oral): ±; Gastric emptying delayed by morphine (in words) ([5]; 10, 30 or 100 mg/kg): did not show an improving activity against the delay in gastric emptying induced by cholecystokinin or morphine; Effect on gastric emptying delayed by cholecystokinin ([3]; 10 mg/kg oral): ±; Effect on gastric emptying delayed by cholecystokinin ([3]; 30 mg/kg oral): ±; Effect on gastric emptying delayed by cholecystokinin ([3]; 100 mg/kg oral): ±; Gastric emptying delayed by cholecystokinin (in words) [3]: did not show an improving activity against the delay in gastric emptying induced by cholecystokinin or morphine; Increase in gastric emptying rate (gastric emptying; 2 mg/kg oral): 21%; Increase in gastric emptying rate (gastric emptying; 5 mg/kg oral): 26%; Increase in gastric emptying rate (gastric emptying; 10 mg/kg oral): 31%
